Test results from ChEMBL document CHEMBL1909046, “DrugMatrix in vitro pharmacology data”.
pIC50, pKi: −log10 of the molar value.

Key:
[1] = biological target: Mitogen-activated protein kinase 1 (Homo sapiens, UniProt P28482); assay: DRUGMATRIX: Protein Serine/Threonine Kinase, ERK2 enzyme inhibition (substrate: Myelin Basic Protein); parameters: species or system Escherichia coli; conditions: Not Active = under 50% inhibition at 10 µM
[2] = DRUGMATRIX: Phosphodiesterase PDE4 enzyme inhibition (substrate: [3H]cAMP + cAMP); conditions: u-937, Not Active = under 50% inhibition at 10 µM
[3] = DRUGMATRIX: Sodium/nucleoside co-transporter radioligand binding (ligand: nitrobenzylthioinosine); type: cell membranes, Cavia porcellus, Dunkin-Hartley, Cerebral cortex, Membrane; conditions: Not Active = under 50% inhibition at 10 µM
[4] = biological target: 5-hydroxytryptamine receptor 2B (Homo sapiens, UniProt P41595); type: cell membranes, CHO-K1, Membrane; conditions: for pIC50: read-out: IC50; for pKi: read-out: Ki; for IC50 / Ki: cho-k1; for all read-outs here: in other assays of this panel Not Active means under 50% inhibition at 10 µM
[5] = biological target: Kappa-type opioid receptor (Homo sapiens, UniProt P41145); assay: DRUGMATRIX: Opiate kappa (OP2, KOP) radioligand binding (ligand: [3H] Diprenorphine); type: cell membranes, HEK293, Membrane; conditions: Not Active = under 50% inhibition at 10 µM; for IC50: hek293
Glucocorticoid receptor = biological target: T1, Glucocorticoid receptor (Homo sapiens, UniProt P04150); conditions: hela s3; note: in other assays of this panel Not Active means under 50% inhibition at 10 µM
T1 sequence (P04150 whole entry): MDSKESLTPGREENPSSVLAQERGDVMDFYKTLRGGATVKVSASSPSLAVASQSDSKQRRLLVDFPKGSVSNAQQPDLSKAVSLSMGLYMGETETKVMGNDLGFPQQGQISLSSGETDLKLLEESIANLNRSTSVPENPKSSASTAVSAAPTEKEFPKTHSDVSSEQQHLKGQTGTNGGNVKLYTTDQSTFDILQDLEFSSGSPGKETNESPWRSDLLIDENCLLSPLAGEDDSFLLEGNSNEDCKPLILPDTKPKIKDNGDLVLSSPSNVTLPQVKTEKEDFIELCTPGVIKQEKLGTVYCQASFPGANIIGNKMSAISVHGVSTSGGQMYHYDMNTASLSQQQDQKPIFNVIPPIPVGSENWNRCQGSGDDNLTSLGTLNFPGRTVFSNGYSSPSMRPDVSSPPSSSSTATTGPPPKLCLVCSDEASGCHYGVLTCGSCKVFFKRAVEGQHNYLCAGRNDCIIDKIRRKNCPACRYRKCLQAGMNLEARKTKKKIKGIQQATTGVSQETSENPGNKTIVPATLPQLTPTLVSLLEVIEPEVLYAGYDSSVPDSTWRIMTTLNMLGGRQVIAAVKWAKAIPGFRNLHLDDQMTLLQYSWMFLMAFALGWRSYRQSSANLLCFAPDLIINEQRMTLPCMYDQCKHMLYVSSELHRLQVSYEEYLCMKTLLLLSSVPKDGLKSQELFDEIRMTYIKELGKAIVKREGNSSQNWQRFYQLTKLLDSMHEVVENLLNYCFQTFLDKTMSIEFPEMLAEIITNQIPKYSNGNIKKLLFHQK

Chain of 5-hydroxytryptamine receptor 2B (P41595 whole entry): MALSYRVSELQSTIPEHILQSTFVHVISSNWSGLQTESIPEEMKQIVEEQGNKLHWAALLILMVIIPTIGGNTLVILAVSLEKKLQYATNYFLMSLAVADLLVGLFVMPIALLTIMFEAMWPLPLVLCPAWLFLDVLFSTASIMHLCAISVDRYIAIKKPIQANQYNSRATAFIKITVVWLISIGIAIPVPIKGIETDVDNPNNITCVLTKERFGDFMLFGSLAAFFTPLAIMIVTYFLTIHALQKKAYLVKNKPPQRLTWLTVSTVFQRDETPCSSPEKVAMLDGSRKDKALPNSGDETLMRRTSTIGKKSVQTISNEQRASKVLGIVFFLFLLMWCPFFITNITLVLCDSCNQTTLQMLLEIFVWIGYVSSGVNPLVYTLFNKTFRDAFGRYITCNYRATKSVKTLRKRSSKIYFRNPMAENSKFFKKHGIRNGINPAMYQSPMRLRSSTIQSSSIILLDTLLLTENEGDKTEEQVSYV
Chain of Mitogen-activated protein kinase 1 (P28482 whole entry): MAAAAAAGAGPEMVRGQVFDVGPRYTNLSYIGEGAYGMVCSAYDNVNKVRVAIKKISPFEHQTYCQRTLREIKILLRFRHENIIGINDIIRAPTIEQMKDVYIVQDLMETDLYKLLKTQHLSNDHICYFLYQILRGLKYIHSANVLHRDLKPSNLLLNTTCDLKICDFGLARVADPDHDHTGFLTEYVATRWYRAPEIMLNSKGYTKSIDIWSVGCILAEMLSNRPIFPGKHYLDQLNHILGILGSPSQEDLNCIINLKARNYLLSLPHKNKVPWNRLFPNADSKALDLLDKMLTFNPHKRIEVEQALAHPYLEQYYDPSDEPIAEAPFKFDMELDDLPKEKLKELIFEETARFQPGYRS
Chain of Kappa-type opioid receptor (P41145 whole entry): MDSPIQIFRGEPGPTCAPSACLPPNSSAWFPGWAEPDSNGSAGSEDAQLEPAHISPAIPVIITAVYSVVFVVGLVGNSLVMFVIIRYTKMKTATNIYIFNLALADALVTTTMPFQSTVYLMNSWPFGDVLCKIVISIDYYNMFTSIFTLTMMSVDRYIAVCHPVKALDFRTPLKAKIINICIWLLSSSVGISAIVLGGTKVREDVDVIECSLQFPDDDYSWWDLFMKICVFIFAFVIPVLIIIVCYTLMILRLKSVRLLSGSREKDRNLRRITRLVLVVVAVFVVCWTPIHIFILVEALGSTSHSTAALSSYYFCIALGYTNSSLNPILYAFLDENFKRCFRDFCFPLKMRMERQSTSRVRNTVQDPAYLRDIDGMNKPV

Compound | IC50 [1] | IC50 [2] | Ki [2] | IC50 [3] | Ki [3] | pIC50 [4] | pKi [4] | IC50 [5] | IC50 (Glucocorticoid receptor) | IC50 [4] | pKi [5] | pIC50 ([5]; read-out: IC50) | pIC50 ([2]; read-out: IC50) | pIC50 ([1]; read-out: IC50) | Ki [1] | Ki [4] | Ki (Glucocorticoid receptor)
Cc1c(C)c2c(c(C)c1O)CCC(C)(CN1CCN(c3cc(N4CCCC4)nc(N4CCCC4)n3)CC1)O2 (stereo not given) | Not Active | Not Active | Not Active | Not Active | Not Active | 6.28 | 6.48 | Not Active | Not Active |  |  |  |  |  |  |  | 
COc1ccc(CCN(C)CCCC(C#N)(c2ccc(OC)c(OC)c2)C(C)C)cc1OC (stereo not given) | Not Active | Not Active | Not Active | Not Active | Not Active |  |  | Not Active |  |  |  |  |  |  |  |  | 
CC(C)Cc1ccc([C@@H](C)C(=O)O)cc1 [(R)-IBUPROPHEN] | Not Active | Not Active | Not Active | Not Active | Not Active |  |  | Not Active | Not Active | Not Active |  |  |  |  |  |  | 
CN(C)CCOC(c1ccccc1)c1ccccc1 [DIPHENHYDRAMINE] | Not Active |  |  |  |  |  |  | Not Active | Not Active |  |  |  |  |  |  |  | 
Clc1ccc(COC(Cn2ccnc2)c2ccc(Cl)cc2Cl)cc1 (stereo not given) [ECONAZOLE] | Not Active |  |  |  |  |  |  |  | Not Active |  | 5.46 | 5.06 |  |  |  |  | 
CCN(CC)CCOc1ccc(/C(=C(/Cl)c2ccccc2)c2ccccc2)cc1 [ENCLOMIPHENE] | Not Active |  |  |  |  |  |  | Not Active | Not Active |  |  |  |  |  |  |  | 
Fc1ccc(C(c2ccc(F)cc2)N2CCN(C/C=C/c3ccccc3)CC2)cc1 [FLUNARIZINE] | Not Active |  |  |  |  |  |  | Not Active | Not Active |  |  |  |  |  |  |  | 
CNCCC(Oc1ccc(C(F)(F)F)cc1)c1ccccc1 (stereo not given) [FLUOXETINE] | Not Active |  |  |  |  |  |  | Not Active | Not Active | Not Active |  |  |  |  |  |  | 
Cc1ccc(NC(=O)c2ccc(CN3CCN(C)CC3)cc2)cc1Nc1nccc(-c2cccnc2)n1 [IMATINIB] |  |  |  |  |  |  |  | Not Active | Not Active | Not Active |  |  |  |  |  |  | 
CC(C)Oc1ccc2c(=O)c(-c3ccccc3)coc2c1 [IPRIFLAVONE] | Not Active | Not Active | Not Active | Not Active | Not Active |  |  | Not Active | Not Active | Not Active |  |  |  |  |  |  | 
CC(C)NCC(O)c1ccc(O)c(O)c1 (stereo not given) [ISOPROTERENOL] | Not Active | Not Active | Not Active | Not Active | Not Active |  |  | Not Active | Not Active | Not Active |  |  |  |  |  |  | 
CNC1(c2ccccc2Cl)CCCCC1=O (stereo not given) [KETAMINE] | Not Active | Not Active | Not Active | Not Active | Not Active |  |  | Not Active | Not Active | Not Active |  |  |  |  |  |  | 
N#Cc1ccc(C(c2ccc(C#N)cc2)n2cncn2)cc1 [LETROZOLE] | Not Active | Not Active | Not Active | Not Active | Not Active |  |  | Not Active | Not Active | Not Active |  |  |  |  |  |  | 
CCN1CCC[C@H]1CNC(=O)c1cc(S(N)(=O)=O)ccc1OC [LEVOSULPIRIDE] | Not Active | Not Active | Not Active | Not Active | Not Active |  |  | Not Active | Not Active | Not Active |  |  |  |  |  |  | 
CCN(CC)CC(=O)Nc1c(C)cccc1C [LIDOCAINE] | Not Active | Not Active | Not Active | Not Active | Not Active |  |  | Not Active | Not Active | Not Active |  |  |  |  |  |  | 
O=C1Nc2ccc(Cl)cc2C(c2ccccc2Cl)=NC1O (stereo not given) [LORAZEPAM] | Not Active | Not Active | Not Active | Not Active | Not Active |  |  | Not Active | Not Active | Not Active |  |  |  |  |  |  | 

Compound | IC50 [1] | IC50 [2] | Ki [2] | IC50 [3] | Ki [3] | pIC50 [4] | pKi [4] | IC50 [5] | IC50 (Glucocorticoid receptor) | IC50 [4] | pKi [5] | pIC50 ([5]; read-out: IC50) | pIC50 ([2]; read-out: IC50) | pIC50 ([1]; read-out: IC50) | Ki [1] | Ki [4] | Ki (Glucocorticoid receptor)
CO[C@@H]1[C@@H](OC)[C@H](C)[C@@](O)(CC(=O)O)O[C@H]1[C@H](C)[C@H]1O[C@@]2(CC[C@@](C)([C@H]3CC[C@@](C)([C@@H]4O[C@@H]([C@H]5O[C@](C)(O)[C@H](C)C[C@@H]5C)C[C@@H]4O[C@@H]4C[C@H](OC)[C@@H](OC)[C@H](C)O4)O3)O2)C[C@H](O)[C@H]1C [MADURAMICIN ACID] | Not Active | Not Active | Not Active | Not Active | Not Active | 7.48 | 7.68 | Not Active | Not Active |  |  |  |  |  |  |  | 
COc1c2occc2cc2ccc(=O)oc12 [METHOXSALEN] | Not Active | Not Active | Not Active | Not Active | Not Active |  |  | Not Active | Not Active | Not Active |  |  |  |  |  |  | 
C[C@H]1C[C@@H]2[C@H]([C@@H](O)C[C@@]3(C)[C@H]2CC[C@]3(O)C(=O)CO)[C@@]2(C)C=CC(=O)C=C12 [METHYLPREDNISOLONE] | Not Active | Not Active | Not Active | Not Active | Not Active |  |  | Not Active |  | Not Active |  |  |  |  |  |  | 
Cc1cccc(C)c1OCC(C)N (stereo not given) [MEXILETINE] | Not Active | Not Active | Not Active | Not Active | Not Active | 5.94 | 6.14 | Not Active |  |  |  |  |  |  |  |  | 
Nc1cc(N2CCCCC2)nc(N)[n+]1[O-] [MINOXIDIL] | Not Active | Not Active | Not Active | Not Active | Not Active |  |  | Not Active | Not Active | Not Active |  |  |  |  |  |  | 
CO[C@H]1/C=C/O[C@@]2(C)Oc3c(C)c(O)c4c(O)c(c(/C=N/N5CCN(C6CCCC6)CC5)c(O)c4c3C2=O)NC(=O)/C(C)=C\C=C\[C@H](C)[C@H](O)[C@@H](C)[C@@H](O)[C@@H](C)[C@H](OC(C)=O)[C@@H]1C [RIFAPENTINE] | Not Active | Not Active | Not Active | Not Active | Not Active |  |  | Not Active | Not Active | Not Active |  |  |  |  |  |  | 
CCCCOc1cc(CC2CNC(=O)N2)ccc1OC (stereo not given) [RO-201724] | Not Active |  |  | Not Active | Not Active |  |  | Not Active | Not Active | Not Active |  |  | 4.95 |  |  |  | 
CC[C@@H](C(=O)[C@@H](C)[C@@H](O)[C@H](C)[C@@H]1O[C@@H]([C@@H](CC)C(=O)O)CC[C@@H]1C)[C@H]1O[C@]2(C=C[C@@H](O)[C@]3(CC[C@@](C)([C@H]4CC[C@](O)(CC)[C@H](C)O4)O3)O2)[C@H](C)C[C@@H]1C [SALINOMYCIN] | Not Active | Not Active | Not Active | Not Active | Not Active |  |  |  |  | Not Active |  |  |  |  |  |  | 
O=C(Oc1ccccc1C(=O)O)c1ccccc1O [SALSALATE] | Not Active | Not Active | Not Active | Not Active | Not Active |  |  | Not Active |  | Not Active |  |  |  |  |  |  | 
CN[C@H]1CC[C@@H](c2ccc(Cl)c(Cl)c2)c2ccccc21 [SERTRALINE] | Not Active |  |  |  |  | 5.47 | 5.67 | Not Active | Not Active |  |  |  |  |  |  |  | 
O.O.O.O.O.O.[Cl-].[Cl-].[Sr+2] [STRONTIUM CHLORIDE HEXAHYDRATE] | Not Active | Not Active | Not Active | Not Active | Not Active |  |  | Not Active |  | Not Active |  |  |  |  |  |  | 
Cn1c(=O)c2nc[nH]c2n(C)c1=O.O [THEOPHYLLINE] | Not Active | Not Active | Not Active | Not Active | Not Active |  |  | Not Active |  | Not Active |  |  |  |  |  |  | 
Clc1ccccc1CN1CCc2sccc2C1 [TICLOPIDINE] | Not Active | Not Active | Not Active | Not Active | Not Active |  |  | Not Active |  | Not Active |  |  |  |  |  |  | 
O=C(Nc1ccc(Br)cc1)c1cc(Br)cc(Br)c1O [TRIBROMSALAN] |  | Not Active | Not Active | Not Active | Not Active |  |  |  | Not Active | Not Active |  |  |  | 6.21 |  |  | 
MANGANESE CHLORIDE ANHYDROUS | Not Active | Not Active | Not Active | Not Active | Not Active |  |  |  | Not Active | Not Active |  |  |  |  | Not Active | Not Active | Not Active
SODIUM ORTHOVANAD | Not Active | Not Active | Not Active | Not Active | Not Active |  |  |  | Not Active | Not Active |  |  |  |  | Not Active | Not Active | Not Active
